Laboratory results: patent US12325726B2, “Organic compounds” (priority 2018, dated 2025)
Read-outs that look alike come from different tables or passages of the source.

Tests used:
GABAA receptor = assay: [35S]-TBPS binding inhibition (in vitro potency); details: inhibition of specific binding of [35S]-TBPS
Method: (§1) In vitro potency [ability to inhibit the binding of [^35S]-tert-butylbicyclophosphorothionate (TBPS)], rotorod TD50's (dose at which half of animals tested fail to stay on a rotating rod for 1 minute) and the length of time before animals tested are able to pass rotorod test (duration of action) of 3α-Hydroxy-21-(1′-imidazolyl)-3β-methoxymethyl-5α-pregnan-20-one is determined. These methods for measuring in vitro and in vivo activity of compounds of the invention are fully described in U.S. Pat. No. 5,232,917, incorporated herein by reference in its entirety. The TBPS assay gives the in vitro potency of compounds whereas the rotorod assay estimates the sedative/hypnotic activity of compounds. Since the duration of action of a compound is dependent on the dose and will be prolonged at higher doses, the duration of action is measured at the lowest dose at which all of the animals failed the rotorod test. IC50 is the dose of steroid inhibiting 50% of specific binding of [^35S]-tert-butylbicyclophorothionate (TBPS). Rotorod TD50 is the does at which half of animals fail the rotorod test in rat. Duration of action, measured at the lowest dose where all animals failed the rotorod test, is the time required for all animals tested to once again pass the rotorod test.

rat = assay: Rotorod test (sedative/hypnotic activity, duration of action); assay type: in vivo
Method: as §1

[1] = In vivo mouse pharmacokinetics, paired oral co-dosing, plasma and brain; parameters: species or system mice; details: 10 mg/kg po co-dosed; for AUC: 0.25-6 hr sampling
Method: In a first study, the compounds of Examples 2 to 6 are compared to the Compound of Formula A (Example 1) using standard procedures in mice. In each test, two compounds are co-dosed in a single animal and the relative pharmacokinetics in plasma and brain is determined. Each test compound is dissolved in polyethylene glycol 400 vehicle, and administered orally at a dose of 10 mg/kg. After single dose oral administration of the test compounds together, plasma and brain levels are measured at 0.25, 0.5, 1, 2, 4, and 6 hours post-dosing. The mean values for maximum concentration, time to maximum concentration, and Area Under the Curve (AUC) for both compounds are determined. The results are summarized in the tables below for various paired co-dosing experiments: […]

human hepatocyte = assay: In vitro human hepatocyte stability assay; assay type: in vitro ADME; details: human hepatocytes
Method: The compounds of Examples 1, 2, 5 and 6 are compared in a standard in vitro human hepatocyte stability assay run in duplicate. Compounds are provided as 1 M solutions in DMSO, and concentration of test compound is determined at 0.5, 1.0 and 4.0 hours after addition of the test compound. Results are shown below as a percentage of initial concentration.

[2] = cited from earlier work
[3] = brain, read-out: Brain concentration
[4] = plasma, read-out: Plasma concentration

COC[C@@]1(O)CC[C@@]2(C)[C@@H](CC[C@@H]3[C@@H]2CC[C@]2(C)[C@@H](C(=O)Cn4ccnc4)CC[C@@H]32)C1 [Example 1, 3α-Hydroxy-21-(1′-imidazolyl)-3β-methoxymethyl-5α-pregnan-20-one]
IC50 (GABAA receptor): 0.138 µM
TD50 (rat; Rattus norvegicus, po, read-out: rotorod TD50 (po)): 28 mg/kg
duration of action (rat; at lowest dose where all animals failed the rotorod test, time until all pass again): 140 min
Cmax ([1]; brain): 2880 ng/g
Tmax ([1]; brain): 1 h
AUC ([1]; brain): 14200 ng·h/mL
concentration at 0.25 hr [1, 3]: 2280 ng/g
concentration at 0.5 hr [1, 3]: 2230 ng/g
concentration at 1 hr [1, 3]: 2880 ng/g
concentration at 2 hr [1, 3]: 2520 ng/g
concentration at 4 hr [1, 3]: 2360 ng/g
concentration at 6 hr [1, 3]: 2090 ng/g
Kp ([1]; brain/plasma, read-out: B/P AUC Ratio): 1.2
Cmax ([1]; plasma): 2580 ng/mL
Tmax ([1]; plasma): 1 h
AUC ([1]; plasma): 11700 ng·h/mL
concentration at 0.25 hr [1, 4]: 2270 ng/mL
concentration at 0.5 hr [1, 4]: 1820 ng/mL
concentration at 1 hr [1, 4]: 2580 ng/mL
concentration at 2 hr [1, 4]: 2100 ng/mL
concentration at 4 hr [1, 4]: 1840 ng/mL
concentration at 6 hr [1, 4]: 1750 ng/mL
percentage of initial concentration (human hepatocyte; 0 hr): 100%
percentage of initial concentration (human hepatocyte; 0.5 hr): 94%
percentage of initial concentration (human hepatocyte; 1.0 hr): 90%
percentage of initial concentration (human hepatocyte; 4.0 hr): 78%
AUC (0-24) ([2]; human, oral 1 mg fasted, mean): 16.9 ng·h/mL
AUC (0-last) ([2]; human, oral 1 mg fasted, mean): 22.4 ng·h/mL
Cmax ([2]; human, oral 1 mg fasted, mean): 1.3 ng/mL
T1/2 ([2]; human, oral 1 mg fasted, mean): 13.8 h
Tmax ([2]; human, oral 1 mg fasted, mean): 3.1 h
AUC (0-24) ([2]; human, oral 3 mg fasted, mean): 54.6 ng·h/mL
AUC (0-last) ([2]; human, oral 3 mg fasted, mean): 65.6 ng·h/mL
Cmax ([2]; human, oral 3 mg fasted, mean): 5.7 ng/mL
T1/2 ([2]; human, oral 3 mg fasted, mean): 8.8 h
Tmax ([2]; human, oral 3 mg fasted, mean): 2.8 h
AUC (0-24) ([2]; human, oral 10 mg fasted, mean): 213 ng·h/mL
AUC (0-last) ([2]; human, oral 10 mg fasted, mean): 254 ng·h/mL
Cmax ([2]; human, oral 10 mg fasted, mean): 26.5 ng/mL
T1/2 ([2]; human, oral 10 mg fasted, mean): 13.1 h
Tmax ([2]; human, oral 10 mg fasted, mean): 1.7 h
AUC (0-24) ([2]; human, oral 30 mg fasted, mean): 952 ng·h/mL
AUC (0-last) ([2]; human, oral 30 mg fasted, mean): 1117 ng·h/mL
Cmax ([2]; human, oral 30 mg fasted, mean): 120 ng/mL
T1/2 ([2]; human, oral 30 mg fasted, mean): 13.1 h
Tmax ([2]; human, oral 30 mg fasted, mean): 2.1 h
AUC (0-24) ([2]; human, oral 60 mg fasted, mean): 2330 ng·h/mL
AUC (0-last) ([2]; human, oral 60 mg fasted, mean): 2608 ng·h/mL
Cmax ([2]; human, oral 60 mg fasted, mean): 330 ng/mL
T1/2 ([2]; human, oral 60 mg fasted, mean): 12.5 h
Tmax ([2]; human, oral 60 mg fasted, mean): 1.8 h
T1/2 ([2]; humans, oral dosing, average across five dosing groups): approximately 12 hours
